Reference: patent publication US20090306102A1, “2-PYRIDIN-2-YL-QUINAZOLINE DERIVATIVES AS POTASSIUM CHANNEL MODULATING AGENTS FOR THE TREATMENT OF RESPIRATORY DISEASES” (priority 2005, published 2009)

target: T1, hSK3 channels (Homo sapiens, UniProt Q9UGI6); experiment: whole-cell patch-clamp recording of ionic current through SK channels (subtype 3) in HEK293 cells expressing hSK3; assay type: cell-based
T1 construct: expressed in transfected cells; host or cells: HEK293
Procedure: The ionic current through small-conductance Ca^2+-activated K^+ channels (SK channels, subtype 3) is recorded using HEK293 tissue culture cells expressing hSK3 channels in a whole-cell configuration of the patch-clamp technique as described in e.g. WO 2006/100212.
For activators a SC100 value may be estimated. The SC100 value is defined as the Stimulating Concentration required for increasing the baseline current by 100%. The SC100 value determined for Compound A1 of the invention was well below 0.1 μM, which is an indication of its strong SK3 activating properties.

| SMILES | SC100 value (Stimulating Concentration required for increasing the baseline current by 100%) |
| --- | --- |
| Cc1cccc(-c2nc(Nc3ccc(Cl)cc3)c3ccccc3n2)n1 [Compound A1, (4-Chloro-Phenyl)-[2-(6-Methyl-Pyridin-2-yl)-Quinazolin-4-yl]-Amine] | below 0.1 μM |

tested on: not given; experiment: not given

| SMILES | melting point |
| --- | --- |
| Cc1cccc(-c2nc(Nc3ccc(Cl)cc3)c3ccccc3n2)n1 [Compound A1, (4-Chloro-Phenyl)-[2-(6-Methyl-Pyridin-2-yl)-Quinazolin-4-yl]-Amine] | 256.1 to 259.1 °C |
| Fc1cccc(-c2nc(Nc3ccc(Cl)cc3)c3ccccc3n2)n1 [Compound A2, (4-Chloro-Phenyl)-[2-(6-Fluoro-Pyridin-2-yl)-Quinazolin-4-yl]-Amine] | 118.3 to 121.4 °C |
| Clc1ccc(Nc2nc(-c3cccc(Br)n3)nc3ccccc23)cc1 [Compound A3, [2-(6-Bromo-Pyridin-2-yl)-Quinazolin-4-yl]-(4-Chloro-Phenyl)-Amine] | 242.4 to 247.9 °C |
| COc1cccc(-c2nc(Nc3ccc(Cl)cc3)c3ccccc3n2)n1 [Compound A4, (4-Chloro-Phenyl)-[2-(6-Methoxy-Pyridin-2-yl)-Quinazolin-4-yl]-Amine] | 156.8 to 160 °C |
| Oc1cccc(-c2nc(Nc3ccc(Cl)cc3)c3ccccc3n2)n1 [Compound A5, 6-[4-(4-Chloro-Phenylamino)-Quinazolin-2-yl]-Pyridin-2-ol] | > 350 °C |
| O=C(c1ccccc1)c1cccnc1-c1nc(NC2CCCCC2)c2ccccc2n1 [Compound B1, [2-(4-Cyclohexylamino-Quinazolin-2-yl)-Pyridin-3-yl]-Phenyl-Methanone] | 204 to 208 °C |
| Cc1cccc(-c2nc(NC3CCCCC3)c3ccccc3n2)n1 [Compound B2, Cyclohexyl-[2-(6-Methyl-Pyridin-2-yl)-Quinazolin-4-yl]-Amine] | 253.1 to 254.9 °C |
| Cc1cccc(-c2nc(NCc3ccc(Cl)cc3)c3ccccc3n2)n1 [Compound B3, (4-Chloro-Benzyl)-[2-(6-Methyl-Pyridin-2-yl)-Quinazolin-4-yl]-Amine] | 209.9 to 212.2 °C |
| Clc1cccc(-c2nc(NC3CCCCC3)c3ccccc3n2)n1 [Compound B4, [2-(6-Chloro-Pyridin-2-yl)-Quinazolin-4-yl]-Cyclohexyl-Amine] | 218.4 to 220.9 °C |
| Clc1ccc(Nc2nc(-c3cccc(Cl)n3)nc3ccccc23)cc1 [Compound B5, (4-Chloro-Phenyl)-[2-(6-Chloro-Pyridin-2-yl)-Quinazolin-4-yl]-Amine] | 211.9 to 213.2 °C |
| Clc1ccc(CNc2nc(-c3cccc(Cl)n3)nc3ccccc23)cc1 [Compound B6, (4-Chloro-Benzyl)-[2-(6-chloro-Pyridin-2-yl)-Quinazolin-4-yl]-Amine] | 187.4 to 189.7 °C |
| c1ccc2c(-c3nc(NC4CCCCC4)c4ccccc4n3)nccc2c1 [Compound B9, Cyclohexyl-(2-Isoquinolin-1-yl-Quinazolin-4-yl)-Amine] | 274.8 to 276.9 °C |
| Clc1ccc(Nc2nc(-c3nccc4ccccc34)nc3ccccc23)cc1 [Compound B10, (4-Chloro-Phenyl)-(2-Isoquinolin-1-yl-Quinazolin-4-yl)-Amine] | 279 to 280.5 °C |
| Clc1ccc(CNc2nc(-c3nccc4ccccc34)nc3ccccc23)cc1 [Compound B11, (4-Chloro-Benzyl)-(2-Isoquinolin-1-yl-quinazolin-4-yl)-Amine] | 221.4 to 224.5 °C |
